Experiments:
[1] = system: BA/F3 cells expressing wild type JAK2; assay: Apoptosis by Annexin V staining and flow cytometry; assay type: cell-based; conditions: 48 hours after treatment
[2] = system: PC3 prostate adenocarcinoma xenograft; assay: PC3 prostate adenocarcinoma mouse xenograft model; assay type: in vivo
phospho-BAD = assay: Reduction of phospho-BAD (PIM-1 biomarker); assay type: cell-based; conditions: compared to Compound A
Excerpt: The results of this assay are illustrated as a plot of the % of the control against the compound concentration (FIG. 15).

[3] = system: JAK2 V617F-positive HEL cells; assay: Cell proliferation by viable cell counts; assay type: cell-based, human; conditions: 5 days
SET-2 cells = assay: Cell proliferation by viable cell counts; assay type: cell-based; conditions: 5 days
parental BA/F3 cells = assay: Cell proliferation; assay type: cell-based, murine
PIM 1 = PIM 1 (Homo sapiens, UniProt P11309); assay: PIM kinase biochemical profile (Ki)
Chain of PIM 1 (P11309 whole entry, species assumed): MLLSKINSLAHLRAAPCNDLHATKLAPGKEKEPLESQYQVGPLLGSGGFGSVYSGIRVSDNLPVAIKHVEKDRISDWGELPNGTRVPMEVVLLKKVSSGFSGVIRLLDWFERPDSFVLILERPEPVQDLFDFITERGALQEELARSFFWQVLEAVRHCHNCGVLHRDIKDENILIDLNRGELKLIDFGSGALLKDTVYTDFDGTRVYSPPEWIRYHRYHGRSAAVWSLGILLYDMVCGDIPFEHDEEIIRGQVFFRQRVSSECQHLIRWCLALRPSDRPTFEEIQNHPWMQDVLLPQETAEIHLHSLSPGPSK

PC3 cells = assay: Colony formation assay of prostate adenocarcinoma; assay type: cell-based; conditions: Homo sapiens, PC-3; RPMI, pyruvate, 0.5% FBS; read-out: EC50 against PC3 cells (colony formation)
Method: PC3 cells were seeded in Roswell Park Memorial Institute (RPMI) media with pyruvate and 10% fetal bovine serum (FBS).

BA/F3 MPL W515L cells = assay: Cell proliferation; assay type: cell-based, murine; conditions: 0.25-1 μM
Excerpt: (§1) These animals rapidly develop marked thrombocytosis and leukocytosis. At the time of sacrifice, MPL W515L expressing mice show splenomegaly and bone marrow fibrosis.

[4] = system: BA/F3-EpoR-JAK2 V617F cells; assay: Cell proliferation by viable cell counts; assay type: cell-based, murine; set-up: dose or concentration left out as unconfirmed; conditions: Compound 1, 5 days
dogs = assay: Non-GLP toxicology studies in dogs (7-day repeat); assay type: in vivo
Method: (§2) Dose calculations were determined from GLP toxicology studies in rats and non-GLP toxicology studies in dogs.
In dogs, the highest non-severely toxic dose was not observed in 7-day repeat studies at doses as high as 200 mg/kg, which equates to 7400 mg per person or greater, calculated as: […]

[5] = system: BA/F3 cells expressing wild type JAK2; assay: Cell proliferation by viable cell counts; assay type: cell-based, murine; conditions: wild-type JAK2, higher concentrations, 5 days
Flt3 = Flt3 (Homo sapiens, UniProt P36888); assay: Flt3 inhibition (IC50); assay type: biochemical
Chain of Flt3 (P36888 27-993, species assumed): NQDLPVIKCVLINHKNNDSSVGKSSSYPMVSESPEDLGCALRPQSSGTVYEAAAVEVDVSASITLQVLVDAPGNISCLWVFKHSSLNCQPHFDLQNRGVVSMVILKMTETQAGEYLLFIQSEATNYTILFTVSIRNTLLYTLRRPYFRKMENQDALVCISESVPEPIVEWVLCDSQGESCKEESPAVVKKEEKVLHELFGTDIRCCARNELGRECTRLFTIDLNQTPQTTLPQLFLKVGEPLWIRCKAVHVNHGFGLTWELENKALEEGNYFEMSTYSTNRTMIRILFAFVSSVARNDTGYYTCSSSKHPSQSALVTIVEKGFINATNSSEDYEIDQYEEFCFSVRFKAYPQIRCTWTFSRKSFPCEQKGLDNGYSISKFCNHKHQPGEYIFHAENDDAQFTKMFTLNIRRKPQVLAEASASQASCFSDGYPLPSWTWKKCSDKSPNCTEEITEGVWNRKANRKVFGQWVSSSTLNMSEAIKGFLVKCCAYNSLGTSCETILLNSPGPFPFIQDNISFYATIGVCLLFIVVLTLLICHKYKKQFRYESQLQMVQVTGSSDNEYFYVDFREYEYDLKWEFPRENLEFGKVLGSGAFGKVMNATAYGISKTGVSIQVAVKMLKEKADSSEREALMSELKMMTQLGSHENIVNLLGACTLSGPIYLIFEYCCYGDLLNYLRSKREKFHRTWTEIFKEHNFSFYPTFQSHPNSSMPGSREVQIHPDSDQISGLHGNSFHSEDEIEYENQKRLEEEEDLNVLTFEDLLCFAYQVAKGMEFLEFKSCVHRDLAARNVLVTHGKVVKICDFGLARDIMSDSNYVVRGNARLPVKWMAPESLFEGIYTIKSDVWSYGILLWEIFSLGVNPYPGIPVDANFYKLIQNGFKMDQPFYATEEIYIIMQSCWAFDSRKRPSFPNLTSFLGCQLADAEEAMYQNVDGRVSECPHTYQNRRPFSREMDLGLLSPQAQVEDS

[6] = system: homozygous JAK2 V617F knock-in mouse model of MF; assay: Homozygous JAK2 V617F knock-in mouse model of MF; assay type: in vivo
Method: Bone marrow cells from homozygous JAK2 V617F knock-in mice were transplanted into lethally irradiated C57BL/6 recipients to obtain a cohort of MF mice with similar age. […] All mice were treated for 6 weeks.

[7] = system: HEL, BA/F3-EpoR-JAK2 V617F, UKE-1 and SET-2 cells expressing JAK2 V617F; assay: Apoptosis by Annexin V staining and flow cytometry; assay type: cell-based; conditions: 48 hours after treatment, JAK2 V617F-expressing cell lines
Metabolic stability = assay type: in vitro ADME; conditions: compared to Compound A
[8] = system: HSC maintenance, TNFα and WNT signaling pathways; assay: RNA-sequencing of LSK cells from treated homozygous JAK2 V617F mice; assay type: in vivo, mouse; conditions: purified LSK cells, compared with vehicle
rats = assay: GLP toxicology studies in rats; assay type: in vivo, rat
Method: as §2

PIM 3 = PIM 3 (Homo sapiens, UniProt Q86V86); assay: PIM kinase biochemical profile (Ki)
PIM 2 = PIM 2 (Homo sapiens, UniProt Q9P1W9); assay: PIM kinase biochemical profile (Ki)
Chain of PIM 2 (Q9P1W9 whole entry, species assumed): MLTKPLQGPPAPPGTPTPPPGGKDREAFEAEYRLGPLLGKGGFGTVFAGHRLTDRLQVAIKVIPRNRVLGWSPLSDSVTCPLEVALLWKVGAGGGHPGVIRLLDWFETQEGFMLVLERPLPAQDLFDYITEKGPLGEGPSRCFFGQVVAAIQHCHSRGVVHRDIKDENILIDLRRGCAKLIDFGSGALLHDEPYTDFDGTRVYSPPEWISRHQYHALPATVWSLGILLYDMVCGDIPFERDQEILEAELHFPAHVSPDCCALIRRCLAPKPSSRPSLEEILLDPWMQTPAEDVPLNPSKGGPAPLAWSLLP

[9] = system: ruxolitinib-resistant BA/F3-EpoR-JAK2 V617F cells; assay: Proliferation of ruxolitinib-resistant cells by viable cell counts; assay type: cell-based; conditions: ruxolitinib 0.5-2 μM or Compound 1 0.25-1 μM, 5 days
[10] = system: MPL mutant (MPL W515L) mice; assay: MPL W515L transplantation mouse model; assay type: in vivo
Excerpt: as §1

[11] = system: JAK2 V617F-positive UKE-1 cells; assay: Cell proliferation by viable cell counts; assay type: cell-based, human; conditions: 5 days
[12] = system: healthy control CD34+ cells; assay: Hematopoietic progenitor colony assay in methylcellulose; assay type: cell-based, human; conditions: 1-2 μM, 14 days
Excerpt: (§3) Hematopoietic progenitor colonies were counted after 14 days.

[13] = system: MPN patient CD34+ hematopoietic progenitor cells; assay: as above; assay type: cell-based, human; conditions: 1-2 μM, colonies counted after 14 days
Excerpt: as §3

Phosphorylation of STAT5 = assay: STAT5 phosphorylation immunoblot in ruxolitinib-resistant cells; assay type: cell-based; conditions: ruxolitinib 0.5-2 μM
[14] = Compound 1 150 mg/kg, ruxolitinib 60 mg/kg, oral gavage once daily, 6 weeks

For `CC(C)(O)[C@H]1CC[C@H](Nc2ccc3ncc(-c4cccc(C(F)(F)F)c4)n3n2)CC1` [Compound 1, 2-((1R,4R)-4-((3-(3-(trifluoromethyl)phenyl)imidazo[1,2-b]pyridazin-6-yl)amino)cyclohexyl)propan-2-ol], the “apoptosis (Annexin V)” value [1] was “not in wild type JAK2-expressing BA/F3 cells”, the “percentage of tumor growth inhibition (% TGI)” value ([2]; 125 mg/kg) was 59% and the “percentage of tumor growth inhibition (% TGI)” value ([2]; 200 mg/kg) was 40%. For the same compound, the “potency at reducing phospho-BAD” value (phospho-BAD) was “more potent”, the inhibition of proliferation [3] was “markedly inhibited” and the inhibition of proliferation (SET-2 cells) was “dose dependent inhibition”. The concentration reducing proliferation (parental BA/F3 cells) was “greater than 1 M”, the Ki (PIM 1) was 5 nM and the EC50 (PC3 cells) was 143 nM. For the same compound, the reduction of proliferation (BA/F3 MPL W515L cells) was “significantly reduced”, the reduction of proliferation [4] was roughly 90% and the “highest non-severely toxic dose” value (dogs; dog, 7-day repeat studies, not observed at doses as high as) was no less than 200 mg/kg. For the same compound, the “human equivalent of dog highest non-severely toxic dose” value (dogs; per person) was no less than 7400 mg, the inhibition of proliferation [5] was “only modestly inhibited” and the IC50 (Flt3) was 279 nM. For the same compound, the “fibrosis in bone marrow and spleen (reticulin staining)” value ([6]; Compound 1 150 mg/kg, ruxolitinib 60 mg/kg, 6 weeks) was “marked reduction of fibrosis”, the neutrophil counts [6, 14] was “caused reduction” and the “peripheral blood white blood cell (WBC) counts” value [6, 14] was “caused reduction”. The spleen size ([6]; homozygous JAK2 V617F mice, versus vehicle) was “significantly reduces”, the “human equivalent of efficacious dose level in mouse myelofibrosis model (150 mg/kg)” value ([6]; per person) was 925 mg and the “apoptosis (Annexin V)” value [7] was “significant apoptosis”. For the same compound, the metabolic stability (Metabolic stability) was “improved metabolic stability”, the “expression of genes relating to HSC maintenance, TNFα and WNT signaling pathways” value [8] was “significantly downregulated” and the “human equivalent of rat severely toxic dose in 10 percent of animals” value (rats; average per person) was 5286 mg. For the same compound, the “severely toxic dose in 10 percent of animals” value (rats; rat, GLP toxicology) was 500 mg/kg, the Ki (PIM 3) was 42 nM and the Ki (PIM 2) was 239 nM. For the same compound, the “inhibition of cell proliferation” value [9] was “markedly inhibited”, the splenomegaly [10] was “significant decrease” and the inhibition of proliferation [11] was “markedly inhibited”. For the same compound, the “effect on hematopoietic progenitor colonies” value [12] was “minimal effect” and the “inhibition of hematopoietic progenitor colonies” value [13] was “significantly inhibited”.
In the case of `CN1CCC(CNc2ccc3ncc(-c4cccc(OC(F)(F)F)c4)n3n2)CC1` [Compound A, reference compound], the IC50 (Flt3) is reported as 3 nM and the Ki (PIM 3) is reported as 20 nM.
With `N#CC[C@H](C1CCCC1)n1cc(-c2ncnc3[nH]ccc23)cn1` [ruxolitinib] the “inhibition of STAT5 phosphorylation” value (Phosphorylation of STAT5) was “not inhibited”.

From patent publication US20250082634A1, “PIM KINASE INHIBITORS FOR TREATMENT OF MYELOPROLIFERATIVE NEOPLASMS AND FIBROSIS ASSOCIATED WITH CANCER” (Sumitomo Pharma America, Inc., priority 2018, published 2025)
